Laboratory results: patent US20230233305A1, “METHOD OF AMELIORATING OR TREATING INFLAMMATORY IN AN ORAL CAVITY” (priority 2022, published 2023)

Experiments:
[1] = test system: domestic cats with feline chronic gingivostomatitis (FCGS); experiment: Stomatitis disease activity index (SDAI) after mucogingival replacement surgery; assay type: in vivo
Excerpt: The stomatitis disease activity index is to score the condition of the subject by the following three aspects respectively and then add three scores to get the index: (1) owner evaluation (total score 0-3): the quality of life including appetite, activity level, grooming behavior, and perceived comfort would be scored by the owner, with a scale of 0-3, 0 is the best, and 3 is the worst; (2) weight (total score 0-3): the change in weight compared to most recent visit, with a scale of 0-3, 0 is an increase of more than 0.5 kg, 1 is an increase of 0.25-0.5 kg, 2 is an increase of 0-0.25 kg, and 3 is weight loss; (3) inflammatory symptoms (total score 0-24): inflammation in 8 different areas of the oral cavity, including maxillary buccal mucosa, mandibular buccal mucosa, maxillary attached gingiva, mandibular attached gingiva, lateral to palatoglossal folds, molar salivary gland, oropharynx, and sublingual area, with scale of 0-3, 0 is none, 1 is mild, 2 is moderate, and 3 is severe.

[2] = test system: LC3B; experiment: Immunohistochemistry of inflamed oral mucosal tissue with anti-LC3B; assay type: in vivo, domestic cats; settings: after 6-week treatment vs 0th week
Procedure: (§1) The procedure of immunohistochemistry is briefly described as following. All steps are performed on the Leica Bond Max automatic immunohistochemistry machine. The aforementioned inflamed oral mucosal tissues fixed with formalin and embedded in paraffin is sectioned with a thickness of 5 μm, and placed on a glass slide suitable for performing immunohistochemistry. The tissue section is placed in a 50° C. oven for 15 minutes and is dewaxed twice with Bond Dewax Solution for 5 minutes. The tissue section is washed three times with Tris buffered saline (TBS, pH 7.6) for 5 minutes, and then treated with Bond Leica Alcohol for 5 minutes for tissue rehydration. After being washed three times with TBS for 5 minutes, the tissue section is heated at 100° C. with Bond Citrate buffer (pH 6), and the tissue used for detecting VDR is heated for 20 minutes, and the tissue used for detecting LC3B is heated for 40 minutes. After being washed three times with TBS for 5 minutes, the tissue section is reacted with Bond Peroxide solution for 8 minutes. After being washed three times with TBS for 5 minutes, the tissue section is reacted with Bond Protein blocking solution for 10 minutes. After being washed three times with TBS for 5 minutes, the tissue section is reacted with the primary antibodies for 30 minutes at room temperature, wherein the dilution ratio of anti-VDR antibody (ab3508) is 500×, and the dilution ratio of anti-LC3B antibody (ab239416) is 50×. After being washed three times with TBS for 5 minutes, the tissue section is reacted with Bond Post primary solution containing rabbit anti-mouse IgG antibody for 10 minutes. After being washed three times with TBS for 5 minutes, the tissue section is reacted with Bond Post primary solution containing Poly-HPR IgG for 10 minutes. After being washed three times with TBS for 5 minutes, the tissue section is reacted twice with Bond DAB solution for 3 minutes for coloration. […] The staining intensity and frequency of oral mucosal epithelial cells in the tissues are evaluated by the method provided by Shackelford. […]

[3] = test system: VDR; experiment: Immunohistochemistry of inflamed oral mucosal tissue with anti-VDR; assay type: in vivo, domestic cats; settings: after 6-week treatment vs 0th week
Procedure: as §1

[4] = 0th week, vitamin D 200 ng/kg oral + 5 mg/kg deoxytetracycline (control: deoxytetracycline only), 5 mg/kg
[5] = 6th week, vitamin D 200 ng/kg oral + 5 mg/kg deoxytetracycline (control: deoxytetracycline only), 5 mg/kg

Row | Substance | stomatitis disease activity index (SDAI) score [1, 4] | stomatitis disease activity index (SDAI) score [1, 5] | LC3B in the inflamed oral mucosal tissue (IHC intensity and frequency) [2] | VDR in the inflamed oral mucosal tissue (IHC intensity and frequency) [3] | stomatitis disease activity index (SDAI) score ([1]; 0th week, vitamin D 200 ng/kg oral + 5 mg/kg deoxytetracycline (control: deoxytetracycline only)) | stomatitis disease activity index (SDAI) score ([1]; 2nd week, 5 mg/kg deoxytetracycline) | stomatitis disease activity index (SDAI) score ([1]; 6th week, vitamin D 200 ng/kg oral + 5 mg/kg deoxytetracycline (control: deoxytetracycline only))
1 | vitamin D [water-soluble vitamin D] | 17.67 | 13.92 | increases | remains unchanged | – | – | –
2 | deoxytetracycline [control group (A)] | – | – | basically maintains a constant value | decreases | 11.44 | 9.19 | 11.22
3 | vitamin D [fat-soluble vitamin D] | 13 | 11.5 | increases | increases | – | – | –
